Measurements as given in patent publication US20100280061A1, “NOVEL ANALGESIC THAT BINDS FILAMIN A” (priority 2009, published 2010).
pKd: −log10 of the molar value.

Tests used:
[1] = test system: mouse; experiment: Mouse hot-water tail-flick test; type: in vivo; conditions: orally administered
Method: The mouse “tail flick” test was used to assay the relative antinociceptive activity of compositions containing a compound to be assayed.
This assay was substantially that disclosed by Xie et al., 2005 J. Neurosci 25:409-416.
The mouse hot-water tail-flick test was performed by placing the distal third of the tail in a water bath maintained at 52° C. The latency until tail withdrawal from the bath was determined and compared among the treatments. A 10 second cutoff was used to avoid tissue damage. Data are converted to percentage of antinociception by the following formula: (response latency−baseline latency)/(cutoff−baseline latency)×100 to generate dose-response curves. […] Relative potency was determined as a ratio of the A50 values.

[2] = biological target: T1, mu opiate receptor (MOR) (Rattus norvegicus, UniProt P33535); experiment: [35S]GTPγS binding assay using striatal membranes (MOR agonist activity); type: biochemical; parameters: MOR agonist activity, [35S]GTPγS binding to Gαo, 0.1 μM / MOR agonist activity, [35S]GTPγS binding to Gαo, 1 μM / MOR agonist activity, [35S]GTPγS binding to Gαo, 1 μM + BFNA: reference not given here; conditions: for MOR agonist activity, [35S]GTPγS binding to Gαo, 0.1 μM: 0.1 μM compound; for MOR agonist activity, [35S]GTPγS binding to Gαo, 0.1 μM / MOR agonist activity, [35S]GTPγS binding to Gαo, 1 μM: striatal membranes; for MOR agonist activity, [35S]GTPγS binding to Gαo, 1 μM + BFNA: 1 μM compound + 1 μM β-funaltrexamine; for MOR agonist activity, [35S]GTPγS binding to Gαo, 1 μM: 1 μM compound
T1 construct: from tissue; host or cells: striatal tissue (membrane preparation)
T1 sequence (P33535 whole entry): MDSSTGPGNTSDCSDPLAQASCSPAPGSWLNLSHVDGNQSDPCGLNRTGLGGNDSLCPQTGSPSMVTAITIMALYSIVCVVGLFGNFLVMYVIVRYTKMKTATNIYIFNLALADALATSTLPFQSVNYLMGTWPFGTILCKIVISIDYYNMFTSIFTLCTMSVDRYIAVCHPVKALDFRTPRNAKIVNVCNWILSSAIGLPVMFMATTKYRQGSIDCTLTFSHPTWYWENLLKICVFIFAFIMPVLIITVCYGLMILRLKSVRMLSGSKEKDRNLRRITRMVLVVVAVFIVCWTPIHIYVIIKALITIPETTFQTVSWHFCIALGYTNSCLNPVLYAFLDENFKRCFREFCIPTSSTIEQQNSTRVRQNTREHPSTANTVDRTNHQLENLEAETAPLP
Method: To assess the mu opiate receptor (MOR) agonist activity of positive compounds from the FLNA screening, compounds were tested in a [^35S]GTPγS binding assay using striatal membranes. Our previous study has shown that in striatal membranes, activation of MOR leads to an increase in [^35S]GTPγS binding to Gαo (Wang et al., 2005 Neuroscience 135:247-261).
Striatal tissue was homogenized in 10 volumes of ice cold 25 mM HEPES buffer, pH 7.4, which contained 1 mM EGTA, 100 mM sucrose, 50 μg/ml leupeptin, 0.04 mM PMSF, 2 μg/ml soybean trypsin inhibitor and 0.2% 2-mercaptoethanol. The homogenates were centrifuged at 800×g for 5 minutes and the supernatants were centrifuged at 49,000×g for 20 minutes. The resulting pellets were suspended in 10 volume of reaction buffer, which contained 25 mM HEPES, pH 7.5, 100 mM NaCl, 50 μg/ml leupeptin, 2 μg/ml soybean trypsin inhibitor, 0.04 mM PMSF and 0.02% […].
The resultant striatal membrane preparation (200 μg) was admixed and maintained (incubated) at 30° C. for 5 minutes in reaction buffer as above that additionally contained 1 mM MgCl2 and 0.5 nM [^35S]GTPγS (0.1 μCi/assay, PerkinElmer Life and Analytical Sciences) in a total volume of 250 μl and continued for 5 minutes in the absence or presence of 0.1-10 μM of an assayed compound of interest. The reaction was terminated by dilution with 750 μl of ice-cold reaction buffer that contained 20 mM MgCl2 and 1 mM EGTA and immediate centrifugation at 16,000×g for 5 minutes.
The resulting pellet was solubilized by sonicating for 10 seconds in 0.5 ml of immunoprecipitation buffer containing 0.5% digitonin, 0.2% sodium cholate and 0.5% NP-40. Normal rabbit serum (1 μl) was added to 1 ml of lysate and incubated at 25° C. for 30 minutes. Nonspecific immune complexes were removed by incubation with 25 μl of protein A/G-conjugated agarose beads at 25° C. for 30 minutes followed by centrifugation at 5,000×g at 4° C. for 5 minutes. The supernatant was divided and separately incubated at 25° C. for 30 minutes with antibodies raised against Gαo proteins (1:1,000 dilutions).
The immunocomplexes so formed were collected by incubation at 25° C. for 30 minutes with 40 μl of agarose-conjugated protein A/G beads and centrifugation at 5,000×g at 4° C. for 5 minutes. The pellet was washed and suspended in buffer containing 50 mM Tris-HCl, pH 8.0, and 1% NP-40. The radioactivity in the suspension was determined by liquid scintillation spectrometry. […] DAMGO (H-Tyr-D-Ala-Gly-N-MePhe-Gly-OH; 1 or 10 μM) was used as a positive control.

[3] = biological target: Bn-VAKGL pentapeptide of filamin A (FLNA) (Homo sapiens, UniProt P21333); experiment: FITC-NLX-based FLNA screening assay (FLNA peptide binding assay); conditions: 10 nM FITC-NLX
Method: The final assay volume is 100 μl.
Compounds are tested in triplicate or quadruplicate.

[4] = test system: MOR-Gs/olf and MOR-Go coupling; experiment: Relative Gs/Go switching in organotypic striatal slice cultures (MOR-G protein coupling); type: cell-based, rat; conditions: for Go (MOR in anti-Gαo immunoprecipitates), average / Gs/Go-Coupled Ratio, average / Gs/olf (MOR in anti-Gαs/olf immunoprecipitates), average: striatal slice culture
Method: The experiments described herein were carried out on organotypic striatal slices from male Sprague Dawley rats (200 to 250 g) purchased from Taconic (Germantown, N.Y.). Rats were housed two per cage and maintained on a regular 12-hour light/dark cycle in a climate-controlled room with food and water available ad libitum and sacrificed by rapid decapitation. All data are presented as mean±standard error of the mean. Treatment effects were evaluated by two-way ANOVA followed by Newman-Keul's test for multiple comparisons. Two-tailed Student's t test was used for post hoc pairwise comparisons. The threshold for significance was p<0.05.
Striatal slices ([…]) were prepared using a Mcllwain tissue chopper (Mickle Laboratory Engineering Co., Surrey, UK). Slices were carefully transferred to sterile, porous culture inserts (0.4 μm, Millicell-CM) using the rear end of a glass Pasteur pipette. Each culture insert unit contained 2 slices and was placed into one well of the 12-well culture tray. […] The pH value was adjusted to 7.2 with HEPES buffer.
Cultures were first incubated for 2 days to minimize the impact of injury from slice preparation. Incubator settings throughout the experiment were 36° C. with 5% CO2.
Slices were returned to culture medium with normal serum after each drug exposure. Tissues were harvested 16 hours after the last drug exposure by centrifugation.
For determination of MOR-G protein coupling, slices were homogenized to generate synaptic membranes. […] Following centrifugation, striatal membrane lysates were immunoprecipitated with immobilized anti-Gαs/olf or -Gαo conjugated with immobilized protein G-agarose beads. The level of MOR in anti-Gαs/olf or -Gαo immunoprecipitates was determined by Western blotting using specific anti-MOR antibodies.

[5] = biological target: filamin A (Homo sapiens, UniProt P21333); conditions: read-out: affinity of binding to filamin A; cited from earlier work
Chain of filamin A (P21333 whole entry): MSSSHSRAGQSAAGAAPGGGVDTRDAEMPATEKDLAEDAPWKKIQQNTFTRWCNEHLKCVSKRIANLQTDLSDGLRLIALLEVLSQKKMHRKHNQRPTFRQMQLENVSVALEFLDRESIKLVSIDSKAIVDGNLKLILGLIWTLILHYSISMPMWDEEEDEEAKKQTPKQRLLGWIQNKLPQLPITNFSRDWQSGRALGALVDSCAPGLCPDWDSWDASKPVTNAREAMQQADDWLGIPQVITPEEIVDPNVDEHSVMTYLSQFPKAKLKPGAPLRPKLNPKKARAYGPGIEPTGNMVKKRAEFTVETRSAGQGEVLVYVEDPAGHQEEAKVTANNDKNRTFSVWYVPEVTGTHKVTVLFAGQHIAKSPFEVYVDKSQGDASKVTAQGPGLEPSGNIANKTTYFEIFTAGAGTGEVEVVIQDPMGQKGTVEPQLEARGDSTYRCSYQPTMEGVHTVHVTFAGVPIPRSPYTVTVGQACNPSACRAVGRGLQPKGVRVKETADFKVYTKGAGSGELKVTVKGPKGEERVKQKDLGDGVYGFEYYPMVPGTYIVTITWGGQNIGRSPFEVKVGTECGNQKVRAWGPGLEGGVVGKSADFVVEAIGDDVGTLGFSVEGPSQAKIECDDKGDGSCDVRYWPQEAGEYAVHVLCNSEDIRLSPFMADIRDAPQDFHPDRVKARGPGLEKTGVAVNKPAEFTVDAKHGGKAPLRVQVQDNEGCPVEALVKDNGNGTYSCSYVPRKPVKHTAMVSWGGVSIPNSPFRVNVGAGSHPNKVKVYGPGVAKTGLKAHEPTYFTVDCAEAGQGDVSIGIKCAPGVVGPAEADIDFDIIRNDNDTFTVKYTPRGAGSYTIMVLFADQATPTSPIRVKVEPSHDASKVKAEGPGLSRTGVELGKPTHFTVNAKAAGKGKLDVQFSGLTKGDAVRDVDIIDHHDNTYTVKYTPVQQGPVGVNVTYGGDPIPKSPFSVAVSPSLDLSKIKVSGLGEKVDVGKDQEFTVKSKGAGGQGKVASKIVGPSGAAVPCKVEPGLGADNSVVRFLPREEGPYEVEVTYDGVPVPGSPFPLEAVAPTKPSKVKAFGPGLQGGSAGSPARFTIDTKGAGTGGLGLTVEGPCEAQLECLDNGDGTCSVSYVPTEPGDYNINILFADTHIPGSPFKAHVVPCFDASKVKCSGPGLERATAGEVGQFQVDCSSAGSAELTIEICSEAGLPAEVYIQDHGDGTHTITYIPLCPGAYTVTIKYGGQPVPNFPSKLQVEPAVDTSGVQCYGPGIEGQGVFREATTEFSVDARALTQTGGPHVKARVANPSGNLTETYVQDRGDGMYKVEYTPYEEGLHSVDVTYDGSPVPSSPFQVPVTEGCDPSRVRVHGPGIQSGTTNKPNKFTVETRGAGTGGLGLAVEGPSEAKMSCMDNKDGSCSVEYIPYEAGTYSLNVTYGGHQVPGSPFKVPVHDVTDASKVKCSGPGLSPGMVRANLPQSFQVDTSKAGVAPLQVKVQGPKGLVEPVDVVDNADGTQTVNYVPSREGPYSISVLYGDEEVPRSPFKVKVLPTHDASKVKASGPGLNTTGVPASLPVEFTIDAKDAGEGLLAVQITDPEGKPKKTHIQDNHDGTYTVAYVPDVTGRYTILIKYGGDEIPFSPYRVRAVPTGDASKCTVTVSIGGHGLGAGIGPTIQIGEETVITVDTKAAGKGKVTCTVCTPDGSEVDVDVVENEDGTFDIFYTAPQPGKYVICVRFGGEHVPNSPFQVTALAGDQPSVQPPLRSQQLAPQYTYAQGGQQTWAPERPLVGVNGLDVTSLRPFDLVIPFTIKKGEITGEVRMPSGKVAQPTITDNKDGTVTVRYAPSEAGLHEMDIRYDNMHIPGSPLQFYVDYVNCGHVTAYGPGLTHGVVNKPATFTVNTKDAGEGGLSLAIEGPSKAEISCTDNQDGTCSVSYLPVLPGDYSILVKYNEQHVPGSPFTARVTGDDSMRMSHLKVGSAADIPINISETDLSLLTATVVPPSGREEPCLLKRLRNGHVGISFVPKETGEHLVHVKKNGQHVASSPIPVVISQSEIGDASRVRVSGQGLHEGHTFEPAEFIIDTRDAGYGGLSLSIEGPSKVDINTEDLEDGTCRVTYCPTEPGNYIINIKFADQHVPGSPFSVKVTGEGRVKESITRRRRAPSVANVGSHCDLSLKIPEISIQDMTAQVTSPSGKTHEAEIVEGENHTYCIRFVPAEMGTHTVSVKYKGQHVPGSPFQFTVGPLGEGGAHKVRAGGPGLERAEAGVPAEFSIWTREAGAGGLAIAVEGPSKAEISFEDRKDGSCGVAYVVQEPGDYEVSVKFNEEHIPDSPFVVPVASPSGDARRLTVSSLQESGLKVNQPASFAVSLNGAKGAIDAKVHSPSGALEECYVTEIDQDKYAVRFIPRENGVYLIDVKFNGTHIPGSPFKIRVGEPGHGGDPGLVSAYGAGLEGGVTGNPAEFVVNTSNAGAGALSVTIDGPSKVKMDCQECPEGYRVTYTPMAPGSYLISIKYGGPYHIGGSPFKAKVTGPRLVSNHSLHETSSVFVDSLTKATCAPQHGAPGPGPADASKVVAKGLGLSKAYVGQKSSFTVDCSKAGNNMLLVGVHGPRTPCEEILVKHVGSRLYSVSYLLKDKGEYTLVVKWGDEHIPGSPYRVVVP

[6] = 32 mg/kg, at about 20-30 minutes

SMILES	MOR agonist activity, [35S]GTPγS binding to Gαo, 0.1 μM [2] [%]	MOR agonist activity, [35S]GTPγS binding to Gαo, 1 μM + BFNA [2] [%]	MOR agonist activity, [35S]GTPγS binding to Gαo, 1 μM [2] [%]	Percent inhibition of FITC-NLX binding, 0.01 μM ([3]; 0.01 μM compound) [%]	Percent inhibition of FITC-NLX binding, 0.1 μM ([3]; 0.1 μM compound) [%]	Percent inhibition of FITC-NLX binding, 1 μM ([3]; 1 μM compound) [%]	other results
COc1cccc(OC)c1CC(=O)CC1c2c(cc3c(c2OC)OCO3)CC[N+]1(C)C.[I-] (centres unmarked) [B0036]	61.4	65.1	120.6	46.6	52.8	62.1	mean maximum antinoniception amount [1, 6]: about 20%
COCOc1ccc(CCC(=O)CC2c3c(cc4c(c3OC)OCO4)CC[N+]2(C)C)cc1.[I-] (centres unmarked) [B0040]	146.0	55.3	243.3	40.0	53.1	57.1	mean maximum antinoniception amount [1, 6]: about 25%; Go (MOR in anti-Gαo immunoprecipitates), average ([4]; 10 μM): 1419.8; Gs/Go-Coupled Ratio, average ([4]; 10 μM): 0.598; Gs/olf (MOR in anti-Gαs/olf immunoprecipitates), average ([4]; 10 μM): 839.0; Go (MOR in anti-Gαo immunoprecipitates), average ([4]; 100 μM): 1472.6; Gs/Go-Coupled Ratio, average ([4]; 100 μM): 0.332; Gs/olf (MOR in anti-Gαs/olf immunoprecipitates), average ([4]; 100 μM): 867.2
COc1c2c(cc3c1C(CC(=O)CCc1ccccc1)N(C)CC3)OCO2 (centres unmarked) [B0050]	98.2	48.8	211.0	29.2	34.5	39.8	–
COc1c2c(cc3c1C(CC(O)CCc1ccccc1)N(C)CC3)OCO2 (centres unmarked) [B0051]	115.6	43.8	161.9	29.9	35.7	43.7	–
COc1c2c(cc3c1C(CC(O)CCc1ccccc1)[N+](C)(C)CC3)OCO2 (centres unmarked) [B0052]	98.2	40.9	151.7	30.2	39.1	44.3	–
COc1c2c(cc3c1C(CC(O)Cc1ccccc1C)N(C)CC3)OCO2 (centres unmarked) [B0054]	157.8	111.0	186.7	–	–	–	inhibition at 0.01 µM ([3]; read-out: Percent inhibition of FITC-NLX binding, 0.01 μM compound): 25.6%; inhibition at 0.1 µM ([3]; read-out: Percent inhibition of FITC-NLX binding, 0.1 μM compound): 32.6%; inhibition at 1 µM ([3]; read-out: Percent inhibition of FITC-NLX binding, 1 μM compound): 43.3%
C=CCN1CC[C@]23c4c5ccc(O)c4O[C@H]2C(=O)CC[C@@]3(O)[C@H]1C5 [NLX, naloxone]	–	–	–	–	–	–	pKd [5]: ~11.40
O=C1CC[C@@]2(O)[C@H]3Cc4ccc(O)c5c4[C@@]2(CCN3CC2CC2)[C@H]1O5 [NTX, naltrexone]	–	–	–	–	–	–	pKd [5]: ~11.40
COc1ccc2c3c1O[C@H]1C(=O)CC[C@@]4(O)[C@@H](C2)N(C)CC[C@]314 [Oxycodone, oxycodone, reference compound]	–	–	–	–	–	–	switch of mu opioid receptors from Go to Gs coupling ([4]; 7 days of twice daily 1-hour exposures, organotypic striatal slice cultures): switch from Go to Gs coupling
COc1ccccc1CC(=O)CC1c2c(cc3c(c2OC)OCO3)CC[N+]1(C)C (centres unmarked) [compound 5009]	128.5	87.5	270.4	–	–	–	mean maximum antinoniception amount [1, 6]: about 30%
CN1CC[C@]23c4c5ccc(O)c4O[C@H]2[C@@H](O)C=C[C@H]3[C@H]1C5 [morphine, reference compound]	–	–	–	–	–	–	mean maximum antinoniception amount ([1]; 56 mg/kg, at about 20 minutes): about 43%; antinoniceptive effect ([1]; same dose (32 mg/kg), at thirty minutes): about 30%
